The subject of one assay is citrate synthase. The assay is described as follows: Citrate synthase activity in left ventricular myocardium. Type of assay: in vivo, mouse. As to conditions: SRF HKO left ventricular myocardium at D50, NR diet. How it is done:
SRF^HKO and control (Sf/Sf) mice were administered either rodent maintenance SAFE A04 diet containing 3.10% crude fat. 16.10% crude proteins. 26% starch and 1.9% sugar (Scientific Animal Food Engineering, Paris, France) or SAFE # A04 diet supplemented with NR. NR was provided by Chromadex under brand name NIAGEN (Irvine Calif. USA). The soft pellets were manually prepared every 5 days by mixing 1.65 g of NR into 500 g of powdered SAFE A04 diet and 235 ml of water to reach 2.24 mg of NR/g (wet weight). Control diet was prepared in the same way omitting NR. Mice had ad libitum access to food and water. […]
Frozen tissue samples were weighed, homogenized (Bertin Precellys 24) in ice-cold buffer (50 mg/ml) containing HEPES 5 mM (pH 8.7), EGTA 1 mM, DTT 1 mM and 0.1% Triton X-100. Citrate synthase (CS), activity was determined in homogenized ventricles as previously described (Kuznetsov et al. (2008). Analysis of mitochondrial function in situ in permeabilized muscle fibers, tissues and cells. Journal 3, 965-976). Activities of enzymes were determined by standard spectrophotometric assays. Briefly, for citrate synthase (CS), approximately 0.5 μg of protein were added in 1 ml of Buffer M (Trizma 100 mM (pH 8), 5,5′-dittiobis-(2-Nitrobenzenoic acid) 0.1 mM, Acetyl-CoA 0.3 mM, oxaloacetatic acid 0.5 mM) and the absorbance at 412 nm was measured during 3 min. […]

Another assay relates to Lmna^H222P/H222P mice. The assay is described as follows: Survival of Lmna H222P/H222P mice on NR diet. Type of assay: in vivo, mouse. How it is done:
Mice were bred in an accredited animal facility (accreditation number: C-75-13-08). All experiments on mice were approved by the Comité d'éthique en expérimentation animate Charles Darwin No 5. Mice Lmna^H222P/H222P were backcrossed 8 times to 129S2/SvPasOrlRj strain mice to obtain pure genetic background. Male mice used for the studies were maintained under a 12 h light/12 h dark cycle at constant temperature (23° C.) with free access to food and water. Nicotinamide riboside (NR) complementation: Animals at 17 weeks of age were fed for 9 weeks with either a chow diet (A04: Scientific Animal Food & Engineering) or a chow diet complemented with 0.25% of NR (kindly provided by ChromaDex, Inc. California) corresponding to a dose of 400 mg/kg/day for a mouse weighing 25 g eating 4 g of food per day. Nicotinamide (NAM) treatment: Animals at 17 weeks of age were injected intraperitoneally (IP) every two days (q.a.d.) for 9 weeks with either physiologic serum or physiologic serum added with NAM at 50 mg/ml corresponding to a dose of 500 mg/kg for a mouse weighing 25 g.
For survival analysis, Lmna^H222P/H222P mice were fed chow supplemented with 0.25% nicotinamide riboside when they were 17 weeks of age and continued until they suffered from significant distress or died. p≤0.001

Structures are written as SMILES.

`NC(=O)c1ccc[n+]([C@@H]2O[C@H](CO)[C@@H](O)[C@H]2O)c1` [NR, nicotinamide riboside]: the citrate synthase activity result in the assay with citrate synthase is on record as “protected against the decline”. Besides, the “mice that died over the course of the treatment protocol” value in the assay with Lmna^H222P/H222P mice (NR diet 400 mg/kg/day, 9 weeks from 17 weeks of age, 38% of chow-diet mice died) is recorded as “none”. The “age at which mice started to die” value with Lmna^H222P/H222P mice (pilot survival study, NR feeding from 17 weeks of age, chow-diet 30 weeks) was 38 weeks. In the assay with Lmna^H222P/H222P mice (pilot survival study, NR feeding from 17 weeks of age, chow-diet 33 weeks), this compound displayed a mean of survival of 39 weeks.

For the origin of these results see patent publication US20190350955A1, “METHODS AND PHARMACEUTICAL COMPOSITIONS FOR THE TREATMENT OF CARDIOMYOPATHIES” (INSERM (Institut National de la Sante et de la Recherche …, priority 2016, published 2019).
